Results taken from patent publication US4983601A, “Benzo(b)pyrrolobenzodiazepines” (Hoechst-Roussel Pharmaceutical Inc., priority 1989, dated 1991).

Tested on: phenyl-para-quinone induced writhes
Experiment: phenyl-para-quinone writhing assay in mice (analgetic activity)
Format: in vivo
Settings: subcutaneous (sc); for Analgetic Activity, percent inhibition of writhing: screening dose of 20 mg/kg
Procedure: Exptl. Biol. Med., 95, 729 ([…])]. Presented in the Table is the analgetic activity of representative compounds of the invention and a standard, expressed as the estimated subcutaneous dose at which the mice experience a 50% reduction in phenyl-para-quinone induced writhes, i.e., the ED50 -value, or the percent inhibition of writhing caused by a screening dose of 20 mg/kg of body weight administered subcutaneously (sc).

Structure (SMILES) | Analgetic Activity, percent inhibition of writhing [%] | Analgetic Activity, ED50 (estimated subcutaneous dose at which the mice experience a 50% reduction in phenyl-para-quinone induced writhes) [mg/kg]
O=c1n(CCCc2noc3cc(F)ccc23)nc2n1-c1cc(Br)ccc1N1CCc3cccc-2c31 [11-Bromo-1,2-dihydro-7-[3-(6-fluoro-1,2-benzisoxazol-3-yl)-1-propyl]benzo[b]pyrrolo[3,2,1-jk][1,2,4]triazolo[4,3-d][1,4]benzodiazepin-8(7H)-one] | 54 | –
Brc1ccc2c(c1)-n1nnnc1-c1cccc3c1N2CC3 [11-Bromo-1,2-dihydrobenzo[b]pyrrolo[3,2,1-jk]tetrazolo[1,5-d][1,4]benzodiazepine] | 56 | –
Cc1ccc2c(c1)n1c(CN(C)C)nnc1c1cccc3ccn2c31 [11-Methyl-8-(dimethylamino)methylbenzo[b]pyrrolo[3,2,1-jk][1,2,4]triazolo[4,3-d][1,4]benzodiazepine] | 57 | –
O=c1n(CCc2ccccc2)nc2n1-c1ccccc1N1CCc3cccc-2c31 [1,2-Dihydro-7-(2-phenylethyl)benzo[b]pyrrolo[3,2,1-jk][1,2,4]triazolo[4,3-d][1,4]benzodiazepin-8(7H)-one] | 62 | –
CCC(=O)O[C@](Cc1ccccc1)(c1ccccc1)[C@H](C)CN(C)C [propoxyphene, reference compound] | – | 3.9
CN(C)Cc1nnc2n1-c1cc(Br)ccc1N1CCc3cccc-2c31 [11-Bromo-1,2-dihydro-8-(dimethylamino)methylbenzo[b]pyrrolo[3,2,1-jk][1,2,4]triazolo[4,3-d][1,4]benzodiazepine] | – | 3.55
